# Experiments:
# Cathepsin B [1] = biological target: T1, Cathepsin B (Homo sapiens, UniProt P07858); test: Inhibition of human cathepsin B relative to control
# Cathepsin B [2] = biological target: T1, Cathepsin B; test: Inhibition of human cathepsin B
# [3] = Covalent reversible inhibition of Leishmania cysteine protease B using Z-Phe-Arg-7-amido-4-methylcoumarin as substrate incubated for 2 mins followed by substrate addition by fluorescence assay
# Leishmania = test: Covalent reversible inhibition of Leishmania cysteine protease B using Z-Phe-Arg-7-amido-4-methylcoumarin as substrate incubated for 2 mins followed by substrate addition by fluorescence assay relative to control; parameters: concentration or dose not given beside the values
Compound,inhibition (INH) (Cathepsin B [1]) [%],Ki (Cathepsin B [2]) [µM],Ki [3] [µM],pKi [3],inhibition (Leishmania) [%]
N#CC1(NC(=O)[C@H](Cc2ccccc2)N[C@@H](c2ccccc2)C(F)(F)F)CC1,74.5,> 10,1.7,5.77,–
Cc1ccc([C@@H](N[C@H](Cc2ccccc2)C(=O)NC2(C#N)CC2)C(F)(F)F)cc1,–,–,> 10,< 5,88
N#CC1(NC(=O)[C@H](Cc2ccccc2)N[C@@H](c2ccc(Br)cc2)C(F)(F)F)CC1,> 95,> 10,0.151,6.82,–
Cc1ccc([C@@H](N[C@@H](Cc2ccccc2)C(=O)NC2(C#N)CC2)C(F)(F)F)cc1,92,> 10,1.5,5.8,–
Cc1ccc([C@H](N[C@H](Cc2ccccc2)C(=O)NC2(C#N)CC2)C(F)(F)F)cc1,–,–,> 10,< 5,86
N#CC1(NC(=O)[C@@H](Cc2ccccc2)N[C@H](c2ccc(Br)cc2)C(F)(F)F)CC1,> 95,> 10,0.795,6.1,–
COc1ccc([C@H](N[C@@H](Cc2ccccc2)C(=O)NC2(C#N)CC2)C(F)(F)F)cc1,–,–,3.23,5.5,–
COc1ccc([C@@H](N[C@H](Cc2ccccc2)C(=O)NC2(C#N)CC2)C(F)(F)F)cc1,–,–,> 10,< 5,95
Cc1ccc([C@H](N[C@@H](Cc2ccccc2)C(=O)NC2(C#N)CC2)C(F)(F)F)cc1,–,–,4.07,5.4,–
N#CC1(NC(=O)[C@@H](Cc2ccccc2)N[C@H](c2ccccc2)C(F)(F)F)CC1,–,–,7.65,5.11,–
N#CC1(NC(=O)[C@@H](Cc2ccccc2)N[C@@H](c2ccccc2)C(F)(F)F)CC1,–,–,4.4,5.37,–
COc1ccc([C@@H](N[C@@H](Cc2ccccc2)C(=O)NC2(C#N)CC2)C(F)(F)F)cc1,–,–,> 10,< 5,70
N#CC1(NC(=O)[C@@H](Cc2ccccc2)N[C@@H](c2ccc(Br)cc2)C(F)(F)F)CC1,–,–,> 10,< 5,–
COc1ccc([C@H](N[C@H](Cc2ccccc2)C(=O)NC2(C#N)CC2)C(F)(F)F)cc1,–,–,> 10,< 5,95
N#CC1(NC(=O)[C@H](Cc2ccccc2)N[C@H](c2ccc(Br)cc2)C(F)(F)F)CC1,–,–,0.595,6.23,–
N#CC1(NC(=O)[C@H](Cc2ccccc2)N[C@H](c2ccccc2)C(F)(F)F)CC1,–,–,1.41,5.85,–

# Reference: ChEMBL document CHEMBL4725295, “Synthesis and matched molecular pair analysis of covalent reversible inhibitors of the cysteine protease CPB” (Bioorg Med Chem Lett, 2020)
